Where a name gives a salt, the structure may show the parent alone. Read-outs that look alike come from different tables or passages of the source.

The test system of assay [1] is P. falciparum 3D7-infected erythrocytes. The assay can be described thus: Plasmodium falciparum growth inhibition assay (SYBR Green I, flow cytometry), drug-sensitive strain. Format: cell-based. The procedure: (§1) Plates were incubated under standard P. falciparum culture conditions for 48 h. […] Fixed parasitized red blood cells (RBC) were stored at 4 °C in the dark until flow cytometry analysis. Parasite growth was assessed by flow cytometry on a BD FACS Cantoll (BD Biosciences) or a Attune™ NxT Flow Cytometer (Invitrogen). Cell doublets were excluded from the analysis using a forward scatter (FSC)-width versus FSC-area dot plot. Infected and uninfected erythrocytes were gated on the basis of their FSC and side scatter (SSC) signals. Fluorescence analysis (Green fluorescence FITC) was performed using BD FACSDiva software (BD Biosciences) on a total of 200,000 acquired events. […] Fluorescence of non-infected RBC was adjusted to plot between 10° and 10^2. Results are expressed as the percentage of growth inhibition.
(§2) All IC50 values were calculated using log-linear interpolation (www.antimalarial-icestimator.net), with mean values (± SD) determined over at least two independent experiments.
(In general: In flow cytometry, cells or beads pass a laser one at a time.)

The subject of assay [2] is multidrug-resistant P. falciparum line Dd2. Put plainly: Plasmodium falciparum growth inhibition assay (SYBR Green I, flow cytometry), multidrug-resistant line. The assay is classed as cell-based. Particulars: Plasmodium falciparum, DD2, 48 h, line resistant to CQ, PYR and mefloquine, mean ± SD, n ≥ 2, read-out: PfDd2 IC50. The procedure: as §1, §2
Assay [3] has as its system P. berghei ANKA parasites. The assay can be described thus: Peters 4-day suppressive test, oral efficacy in P. berghei-infected mice. Format: in vivo, Plasmodium berghei. As to conditions: Experiment 3. The procedure:
Compounds powder was dissolved in DMSO and sonicated for 10 min. Appropriate volume of 50%W/v HPβCD was added dropwise under gentle swirling. After 10 min sonication, DPBS was added dropwise under gentle swirling and the mixture was sonicated again for 10 min. After checking the pH (5.5 - 7), the solution was filtered (0.22µm) and conserved at room temperature for max 2 days. Final concentration of compounds was 2.5 mg/mL, 1 mg/mL or 0.1 mg/mL for mice treatment with 25 mg/kg, 10 mg/kg or 1mg/kg doses.
10 weeks-old Balb/C male mice were purchased from Janvier Labs.
P. berghei ANKA parasites stabilates conserved in liquid nitrogen were thawed and injected intraperitoneally (ip) into 2-3 mice (10^6 infected red blood cells (RBC) / mouse). When parasitemia reached 3-5%, mice were bled and groups of six BALB/c male mice were infected with 10^6 P. berghei ANKA parasites (day 0), and treated per os (p.o.) twice a day on days 0, 1, 2 and 3. […] On day 4 post infection (p.i.), the peripheral blood parasitemia of all mice was evaluated via microscopic examination of Giemsa-stained thin blood smears. Parasitemia was then followed for two weeks.

[4] abbreviates: Plasmodium falciparum, 3D7, Erythrocyte, 48 h incubation, mean ± SD, n ≥ 2, read-out: Pf3D7 IC50.
[5] abbreviates: Plasmodium falciparum, 3D7, Erythrocyte, 48 h incubation, read-out: IC50 (Pf3D7).
Where [6] appears, read: Plasmodium falciparum, 3D7, Erythrocyte, 48 h, read-out: Pf3D7 IC50.
The mark [7] stands for this setting: Balb/C mice, 1 mg/kg p.o. twice a day on days 0-3, day 5 p.i.
Where [8] appears, read: Balb/C mice, 1 mg/kg p.o. twice a day on days 0-3, day 6 p.i.
[9] abbreviates: Balb/C mice, 1 mg/kg p.o. twice a day on days 0-3, day 7 p.i.
The mark [10] stands for this setting: Balb/C mice, 1 mg/kg p.o. twice a day on days 0-3, day 8 p.i.
Where [11] appears, read: Balb/C mice, 1 mg/kg p.o. twice a day on days 0-3, day 10 p.i.

Broadly, the IC50 is the concentration at which inhibition is half-maximal. With `CCc1nc(N)nc(N)c1OCCCCOc1ccccc1CCC(=O)NO` [3·HCl, 3-(2-[4-(2,4-Diamino-6-ethylpyrimidin-5-yloxy)butoxy]phenyl)-N-hydroxypropanamide hydrochloride], the IC50 in assay [1] (setting [4]) turned out to be 451 ± 88 pM.

`CCc1nc(N)nc(N)c1OCCCOc1cc(OC)ccc1CCC(=O)NO` [4·HCl, 3-(2-[3-(2,4-Diamino-6-ethylpyrimidin-5-yloxy)propoxy]-4-methoxyphenyl)-N-hydroxypropanamide hydrochloride]: the IC50 in assay [2] was 6200 ± 500 pM; in assay [1] (setting [4]), 173 ± 122 pM; in assay [1] (setting [5]), under 200 pM.

With `CCc1nc(N)nc(N)c1OCCCOc1cc(Cl)ccc1CCC(=O)NO` [5·HCl, 3-(4-Chloro-2-[3-(2,4-diamino-6-ethylpyrimidin-5-yloxy)propoxy]phenyi)-N-hydroxypropanamide hydrochloride], the 50% inhibitory concentration (IC50) in assay [1] (setting [6]) was determined as 279 ± 154 pM.

`CCc1nc(N)nc(N)c1OCCCOc1cc(OC)ccc1/C=C/C(=O)NO` [14·HCl, (E)-3-{2-[3-(2,4-Diamino-6-ethylpyrimidin-5-yloxy)propoxy]-4-methoxyphenyl}-N-hydroxyacrylamide hydrochloride]: the IC50 in assay [1] (setting [4]) was 88 ± 20 pM; in assay [1] (setting [5]), under 100 pM.

As to `CCc1nc(N)nc(N)c1OCCOc1cccc(/C=C/C(=O)NO)c1` [18·HCl, (E)-3-(3-[2-(2,4-Diamino-6-ethylpyrimidin-5-yloxy)ethoxy]phenyl)-N-hydroxyacrylamide hydrochloride], the IC50 in assay [1] (setting [4]) was determined as 249 ± 15 pM.

`CCc1nc(N)nc(N)c1OCCCOc1cccc(/C=C/C(=O)NO)c1` [19·HCl, (E)-3-{3-[3-(2,4-Diamino-6-ethylpyrimidin-5-yloxy)propoxy]phenyl}-N-hydroxyacrylamide hydrochloride]: the IC50 in assay [2] is 41500 ± 11900 pM; in assay [1] (setting [4]), 173 ± 21 pM; in assay [1] (setting [5]), under 200 pM.

For `CCc1nc(N)nc(N)c1OCCCOc1ccc(/C=C/C(=O)NO)cc1` [20·HCl, (E)-3-{4-[3-(2,4-Diamino-6-ethylpyrimidin-5-yloxy)propoxy]phenyl}-N-hydroxyacrylamide hydrochloride], the IC50 was 117 ± 45 pM in assay [1] (setting [4]) and under 200 pM in assay [1] (setting [5]).

As to `CCN(CC)CCCC(C)Nc1ccnc2cc(Cl)ccc12` (stereo not drawn) [CQ, chloroquine, reference compound], the IC50 in assay [1] (setting [6]) was found to be 4700 ± 1700 pM. Besides, the “parasitemia (mean ± sd)” value in assay [3] (positive control, 10 mg/kg p.o. once a day for 4 days, day 4 p.i.) was 0%; in assay [3] (positive control, 10 mg/kg p.o. once a day for 4 days, day 5 p.i.) it was 0%; in assay [3] (positive control, 10 mg/kg p.o. once a day for 4 days, day 6 p.i.), 0%; in assay [3] (positive control, 10 mg/kg p.o. once a day for 4 days, day 7 p.i.), 0%; in assay [3] (positive control, 10 mg/kg p.o. once a day for 4 days, day 8 p.i.), 0%; in assay [3] (positive control, 10 mg/kg p.o. once a day for 4 days, day 10 p.i.), 0%.

In the case of `CCc1nc(N)nc(N)c1OCCCOc1ccccc1CCC(=O)NOCc1ccccc1` [Compound 7, N-(Benzyloxy)-3-(2-(3-(2,4-diamino-6-ethylpyrimidin-5-yloxy)propoxy)phenyl)propanamide], in assay [1] (setting [4]), the IC50 was 497 ± 55 pM.

In the case of `CCc1nc(N)nc(N)c1OCCCOc1cc(C(=O)NO)ccc1Cl` [Compound 9, 4-Chloro-3-[3-(2,4-diamino-6-ethylpyrimidin-5-yloxy)propoxy]-N-hydroxybenzamide], the IC50 in assay [2] is 16900 ± 3200 pM; in assay [1] (setting [4]) it was 172 ± 27 pM; in assay [1] (setting [5]), under 200 pM.

With `CCc1nc(N)nc(N)c1OCCCOc1cc(C(=O)NO)ccc1F` [Compound 10, 3-(3-[2,4-Diamino-6-ethylpyrimidin-5-yloxy)propoxy]-4-fluoro-N-hydroxybenzamide], the IC50 in assay [1] (setting [4]) was found to be 390 ± 12 pM.

Regarding `CCc1nc(N)nc(N)c1OCCCOc1cccc(C(=O)NOCc2ccc(OC(C)=O)cc2)c1` [Compound 11, N-(4-Acetoxybenzyloxy)-3-[3-(2,4-diamino-6-ethylpyrimidin-5-yloxy)propoxy]benzamide], the results for the IC50 in assay [1] (setting [4]) and in assay [1] (setting [5]) were 1020 ± 680 pM and under 200 pM, respectively. In assay [3] (1 mg/kg p.o. twice a day on days 0-3), the “ranking of activity against P. berghei infection” value is reported as “most active”.

On to `CCc1nc(N)nc(N)c1OCCCOc1cc(Cl)ccc1/C=C/C(=O)NO` [Compound 15, (E)-3-{4-Chloro-2-[3-(2,4-diamino-6-ethylpyrimidin-5-yloxy)propoxy]phenyl}-N-hydroxyacrylamide], for which the IC50 in assay [2] was 4000 ± 400 pM; in assay [1] (setting [4]), 82 ± 7 pM; in assay [1] (setting [5]), under 100 pM.

On to `CCc1nc(N)nc(N)c1OCCCOc1ccccc1/C=C/C(=O)NOCc1ccc(OC(C)=O)cc1` [Compound 16, (E)-N-(4-Acetoxybenzyloxy)-3-{2-[3-(2,4-diamino-6-ethylpyrimidin-5-yloxy)propoxy]phenyl}acrylamide], for which the IC50 in assay [1] (setting [4]) was 67 ± 5 pM; in assay [1] (setting [5]) it was under 100 pM. In addition, the “number of mice showing blood parasites” value in assay [3] (Balb/C mice, 1 mg/kg p.o. twice a day on days 0-3, day 4 p.i.) was 1/5; in assay [3] (setting [7]), 2/5; in assay [3] (setting [8]) it was 3/5; in assay [3] (setting [9]), 3/5; in assay [3] (setting [10]), 5/5; in assay [3] (setting [11]) it was 5/5. Moreover, the “parasitemia (mean ± sd)” value in assay [3] (Balb/C mice, 1 mg/kg p.o. twice a day on days 0-3, day 4 p.i., 1 mg/kg) is listed as 0,02 ± 0,04%; in assay [3] (setting [7]), 0,48 ± 0,72%; in assay [3] (setting [8]), 2,22 ± 2,44%; in assay [3] (setting [9]), 5,21 ± 7,86%; in assay [3] (setting [10]), 5,33 ± 5,64%; in assay [3] (setting [11]) it was 9,25 ± 7,38%.

In the case of `CCc1nc(N)nc(N)c1OCCCOc1ccccc1/C=C/C(=O)NOCc1ccccc1` [Compound 17, (E)-N-(Benzyloxy)-3-{2-[3-(2,4-diamino-6-ethylpyrimidin-5-yloxy)propoxy]phenyl}acrylamide], the IC50 in assay [1] (setting [4]) was 331 ± 124 pM.

As to `CCc1nc(N)nc(N)c1OCCCOc1cccc(COc2cccc(/C=C/C(=O)NO)c2)c1` [Compound 21, (E)-3-(3-(3-[3-(2,4-Diamino-6-ethylpyrimidin-5-yloxy)propoxy]benzyloxy)phenyl)-N-hydroxyacrylamide hydrochloride], the IC50 in assay [1] (setting [4]) was 347 ± 47 pM.

Consider `CCc1nc(N)nc(N)c1OCCCOc1cccc(C(=O)NCCCCCCC(=O)NO)c1` [Compound 30, 3-{3-[(2,4-Diamino-6-ethylpyrimidin-5-yl)oxy]propoxy}-N-[7-(hydroxyamino)-7-oxoheptyl]benzamide], for which the IC50 in assay [1] (setting [4]) is 876 ± 18 pM.

With `CCc1nc(N)nc(N)c1OCCCOc1ccc(C(=O)NCCCCCCC(=O)NO)cc1` [Compound 31, 4-{3-[(2,4-Diamino-6-ethylpyrimidin-5-yl)oxy]propoxy}-N-[7-(hydroxyamino)-7-oxoheptyl]benzamide], the IC50 was 22800 ± 2600 pM in assay [2] and 404 ± 136 pM in assay [1] (setting [4]).

As for “N-(4-Acetoxybenzyloxy)-3-(2-(3-(2,4-diamino-6-ethylpyrimidin-5-yloxy)propoxy)phenyl)propenamide [Compound 6]”, the concentration for half-maximal inhibition (IC50) in assay [1] (48 h incubation, mean ± SD, n ≥ 2, read-out: Pf3D7 IC50) was 169 ± 41 pM.

The values are drawn from EP4438596A1, “DIAMINOPYRIMIDINE DERIVATIVES AS HDAC AND DHFR DUAL-TARGETING INHIBITORS AND USE THEREOF IN PREVENTING AND TREATING MALARIA” (Université de Lille, priority 2023, dated 2024).
